Earlier results, collected in patent EP1568762A1, “Detergent tablet compositions and their manufacture” (UNILEVER N.V., priority 2004, dated 2005).
Read-outs that look alike come from different tables or passages of the source.

[1] = other common materials, by contrast, at 20°C

Structure (SMILES)	Water Solubility (g/100g) [1]	Water Solubility (g/100g) (highly water-soluble materials, grams of solid required to form a saturated solution in 100 grams of water at 20°C)
O=BO[O-].[Na+] [Sodium perborate anhydrous]	3.7 g/100g	
O=P(O)(O)OP(=O)(O)OP(=O)(O)O [Sodium tripolyphosphate anhydrous]	15 g/100g	
NC(N)=O [Urea]		>100 g/100g
